One test deals with importin α. In words: In vitro binding of carrier/DNA complexes to immobilized GST-importin α. Particulars: 1 hr at 25° C., agarose gel. As to the method:
FIG. 2: The NLS of MPG is essential for nuclear translocation: A/ Purified GST-importin α and β were coupled onto GST Sepharose resin and incubated in batch with MPG/DNA or MPG^ΔNLS/DNA complexes for 1 hr, extensively washed and incubated with […] glutathione to elute the complexes. DNA was then extracted and analyzed by agarose gel electrophoresis (0.8%). […] B/ Delivery of pRL-SV40 plasmid: MPG/DNA (black boxes) or MPG^ΔNLS/DNA (grey boxes) complexes formed at a charge ratio of 5/1 with 100 ng pRL-SV40 plasmid encoding the reporter gene luciferase were overlaid onto synchronized or arrested (-FCS) human fibroblasts (Hs68). Luciferase activity was monitored 12 hrs and 24 hrs after release from synchrony, or after 24 hrs for arrested cells and 48 hrs for asynchronous cells. […]
Plasmids for the expression of recombinant GST-fusion protein importin α and importin β were kindly provided by B. Cullen. […] DNA was then extracted from the complexes with phenol-chloroform, followed by ethanol precipitation, and finally analyzed by agarose gel electrophoresis (0.8%).
MPG peptide is derived from the nuclear localization sequence of the SV 40 large T antigen and from the fusion peptide domain of HIV-1 gp41 protein (17). […] Then, both bound and unbound fractions were analyzed by agarose gel electrophoresis.

A further test deals with human fibroblasts (Hs68). The test is described as follows: pRL-SV40 plasmid transfection of synchronized or arrested cells (luciferase activity). It is filed as cell-based. Particulars: for luciferase activity in serum-starved, arrested cells in comparison with dividing cells: 24 hrs after transfection; for transfection efficiency after 24 hrs, relative to expression after 48 hrs: synchronized Hs68, pRL-SV40, 24 hrs. As to the method:
FIG. 2: The NLS of MPG is essential for nuclear translocation: A/ Purified GST-importin α and β were coupled onto GST Sepharose resin and incubated in batch with MPG/DNA or MPG^ΔNLS/DNA complexes for 1 hr, extensively washed and incubated with […] glutathione to elute the complexes. DNA was then extracted and analyzed by agarose gel electrophoresis (0.8%). […] B/ Delivery of pRL-SV40 plasmid: MPG/DNA (black boxes) or MPG^ΔNLS/DNA (grey boxes) complexes formed at a charge ratio of 5/1 with 100 ng pRL-SV40 plasmid encoding the reporter gene luciferase were overlaid onto synchronized or arrested (-FCS) human fibroblasts (Hs68). Luciferase activity was monitored 12 hrs and 24 hrs after release from synchrony, or after 24 hrs for arrested cells and 48 hrs for asynchronous cells. Control transfections were performed with Lipofectamine™ (white boxes) or naked plasmid (dashed boxes).
Hs68, Cos-7 and HeLa cell lines were cultured in Dulbecco's Modified Eagle's Medium supplemented with 2 mM glutamine, 1% antibiotics (streptomycin 10 000 μg/ml, penicillin, 10,000 IU/ml) and 10% (w/v) fetal calf serum (FCS) at 37° C. in a humidified atmosphere containing 5% CO2 as described previously (18). For MPG or MPG^ΔNLS-mediated gene delivery, peptide carrier/DNA complexes were formed in DMEM or PBS (500 μl of DMEM containing 100 ng of DNA complexed with MPG at a charge ratio 5:1) and incubated for 30 min at 37° C. Cells grown to 60% confluence were then overlaid with these preformed complexes. After 30 min incubation at 37° C., 1 ml of fresh DMEM supplemented with 10% fetal calf serum was added to the cells, without removing the overlay of carrier/DNA, and cells were returned to the incubator.
For cell cycle-dependent studies, Hs68 fibroblasts were synchronized by serum deprivation for 40 hrs, then restimulated to enter the cycle and grow into early G1 for 4 hrs by addition of fresh DMEM supplemented with 20% FCS, and incubated in the presence of MPG/DNA complexes as described above. Luciferase activity was monitored as described previously (19) and control transfection experiments were performed using Lipofectamine™. When transfected at 4° C., cells were incubated for 1 hour at 4° C. prior to transfection, then incubated with MPG/DNA complexes for another 2 hours at 4° C., extensively washed and finally returned to incubation at 37° C. in fresh medium supplemented with serum. When transfections were performed in the presence of bafilomycin A ([…]), cytochalasin B (50 μg/ml) or chloroquine (100 μM), cells were preincubated with these inhibitors of endocytosis for 1 hour prior to transfection.
In order to study the impact of the NLS of MPG on nuclear translocation of plasmids, transfection experiments were performed on synchronized or growth-arrested cells with either MPG or its NLS mutant. Cells were synchronized in G0 by serum starvation then released back into the cell cycle by addition of serum. 4 hours after release, cells were transfected with MPG/DNA or MPG^ΔNLS/DNA complexes and transgene expression was monitored 12 hours later, when most of the cells were in late G1, and […] later, in late G2 prior to mitosis. Data were normalized with luciferase activity obtained 48 hours after transfection, and compared with asynchronous cells. […] After 24 hrs, transfection efficiency reached 70%. In contrast, when transfection was performed with MPG^ΔNLS (SEQ ID NO:3), luciferase activity was negligible after 12 hrs (7%), and only reached 26% after 24 hrs. […]

For the sequence “GALFLGFLGAAGSTMGAWSQPKKKRKV (carrier peptide) [MPG, bipartite amphipathic peptide derived from fusion peptide domain of HIV-1 gp41 and NLS of SV40 large T antigen]”, the “interaction of carrier/DNA complex with importin α” value with importin α is “significantly interacted specifically with importin α”. For the same sequence, in the test on human fibroblasts (Hs68), the “luciferase activity in serum-starved, arrested cells in comparison with dividing cells” value came to 50% and the “transfection efficiency after 24 hrs, relative to expression after 48 hrs” value is 70%.
On to “GALFLGFLGAAGSTMGAWSQPKSKRKV (carrier peptide) [MPG^ΔNLS, MPG variant with single mutation of the second lysine residue in the NLS motif to serine]”, for which the “interaction of carrier/DNA complex with importin α” value in the test on importin α is “dramatically reduced”. Further, in the test with human fibroblasts (Hs68), the “luciferase activity in serum-starved, arrested cells in comparison with dividing cells” value was “no transfection was observed” and the “transfection efficiency after 24 hrs, relative to expression after 48 hrs” value was found to be 26%. The “luciferase expression after 12 hrs, relative to expression after 48 hrs” value in the test on human fibroblasts (Hs68) (synchronized Hs68, pRL-SV40, 12 hrs) was determined as 7%.

For the origin of these results see patent US8354387B2, “Methods and compositions for delivering siRNA into mammalian cells” (Centre National de la Recherche Scientifique, priority 2004, dated 2013).
